Assay results reported in BindingDB's records for PubMed 33873056 (California Institute of Technology, 2021).

Target: Transitional endoplasmic reticulum ATPase (Homo sapiens) (UniProt P55072)
Test: Inhibition of p97 (unknown origin) expressed in Escherichia coli BL21 (DE3) preincubated for 10 mins followed by ATP addition measured for 30 to 120 mins by malachite green based assay

Chain of Transitional endoplasmic reticulum ATPase (Homo sapiens) (P55072 whole entry, looked up): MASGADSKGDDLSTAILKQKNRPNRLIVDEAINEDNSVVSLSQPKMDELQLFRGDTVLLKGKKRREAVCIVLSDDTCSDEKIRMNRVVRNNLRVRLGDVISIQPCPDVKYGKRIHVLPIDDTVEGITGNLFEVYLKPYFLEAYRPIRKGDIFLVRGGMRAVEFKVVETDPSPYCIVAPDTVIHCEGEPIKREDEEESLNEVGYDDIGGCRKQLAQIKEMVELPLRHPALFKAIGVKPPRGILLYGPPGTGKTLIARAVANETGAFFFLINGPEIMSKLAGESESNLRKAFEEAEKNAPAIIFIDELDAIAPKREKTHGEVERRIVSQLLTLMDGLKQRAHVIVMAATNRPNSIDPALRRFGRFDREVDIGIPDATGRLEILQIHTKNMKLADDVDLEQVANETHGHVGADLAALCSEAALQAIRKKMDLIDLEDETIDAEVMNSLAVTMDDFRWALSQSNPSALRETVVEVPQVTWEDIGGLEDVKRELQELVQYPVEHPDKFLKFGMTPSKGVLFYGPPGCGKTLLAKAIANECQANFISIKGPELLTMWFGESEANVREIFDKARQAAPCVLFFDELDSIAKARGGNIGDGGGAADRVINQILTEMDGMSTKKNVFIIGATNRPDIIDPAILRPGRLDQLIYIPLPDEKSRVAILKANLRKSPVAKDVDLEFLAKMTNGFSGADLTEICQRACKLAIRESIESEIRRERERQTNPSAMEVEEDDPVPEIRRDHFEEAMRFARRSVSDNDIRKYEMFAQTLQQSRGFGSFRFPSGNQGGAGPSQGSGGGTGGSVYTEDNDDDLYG

IC50: 15.3 µM
Structure (SMILES): C[C@H]1CCC/C=C/C(=O)c2c(O)cc(O)cc2CC(=O)O1 [DEHYDROCURVULARIN]
